Reference: article PMC7220906, “Target-responsive vasoactive probes for ultrasensitive molecular imaging” (Nature Communications, 2020)
Read-outs that look alike come from different tables or passages of the source. Each block holds one compound with its values, some of them ahead of it. Residues, ends and D or L forms follow the SMILES beside them. *: point of attachment. Biotin = O=C1N[C@H]2[C@H](CS[C@H]2CCCCC(=O)*)N1; X2 = O=C(CCN1C(=O)CC(*)C1=O)NCCc1ccc(O)c(O)c1; X1 = C[C@@H]1NC(=O)N[C@@H]1CCCCCC(=O)*

Columns and labels:
[1] = target: T1, PACAP receptor PAC1 (Homo sapiens, UniProt P41586); assay: PAC1 luminescence (GloSensor cAMP) assay of PACAP derivatives; type: cell-based
T1 construct: expressed in transfected cells; host or cells: CHO K1 cells stably transduced by lentivirus with PAC1 and the Glo22F cAMP luciferase
T1 sequence (P41586 21-468): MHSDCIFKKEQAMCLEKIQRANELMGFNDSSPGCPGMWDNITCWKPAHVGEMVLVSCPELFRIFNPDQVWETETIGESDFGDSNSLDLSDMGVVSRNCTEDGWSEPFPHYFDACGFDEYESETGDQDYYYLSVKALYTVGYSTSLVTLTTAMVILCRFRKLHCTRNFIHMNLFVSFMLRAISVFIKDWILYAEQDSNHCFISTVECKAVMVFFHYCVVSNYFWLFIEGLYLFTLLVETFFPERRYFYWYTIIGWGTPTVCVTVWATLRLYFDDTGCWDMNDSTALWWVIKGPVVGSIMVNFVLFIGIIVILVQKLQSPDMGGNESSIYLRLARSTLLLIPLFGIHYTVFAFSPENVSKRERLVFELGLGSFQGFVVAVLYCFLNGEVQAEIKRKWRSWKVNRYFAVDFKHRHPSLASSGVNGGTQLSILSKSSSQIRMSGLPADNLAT
Protocol: (Promega, Madison, WI). We generated a CHO K1 cell line expressing the required cAMP-dependent luciferase and PAC1 receptor. 24 h before the assay, 2500 cells per well were seeded in 100 µl F10 with 10% FBS in white opaque clear-bottom 96-well plates (Costar, Coppell, TX). […] Luminescence was measured for 30 min using a microtiter plate reader and evaluated after the signal reached a plateau (15 min).
Biotin (BT) and desthiobiotin (dBT) were incorporated as lysine sidechain-derivatized monomers in the synthesis; polyethylene glycol (PEG)-linked BT was incorporated as a BT-functionalized glutamine monomer spaced using a linker of four PEG units. […] Further BT-AVATar activation studies were performed using biotinylated bovine serum albumin (BSA, Sigma-Aldrich) containing 100 nM BT or biotinylated cells containing 150 nM BT (preparation see below) as analytes.
Addition of the maleimido functional group was achieved by reacting DA with N-succinimidyl 3-maleimidopropionate in anhydrous dimethylformamide and further purification using HPLC. The resulting functionalized neurotransmitter, DA-Mal, was further characterized by standard methods (Supplementary Methods and Supplementary Figs. 8 and 9). […] Dopamine sensitivity of the DA-AVATar was examined using freshly prepared DA (Sigma-Aldrich) stocks in PBS pH 7.4.

[2] = tested on: streptavidin (SA); design: method as in 2 sources, ref 21 = [21]; PMID 9601024; doi:10.1021/bi9803123; 21. Klumb LA Chu V Stayton PS Energetic roles of hydrogen bonds at the ureido oxygen binding pocket in the streptavidin−biotin complex Biochemistry 1998 37 7657 7663 10.1021/bi9803123 9601024 ||| ref 22 = [22]; PMID 7041971; doi:10.1021/bi00534a024; 22. Hofmann K Titus G Montibeller JA Finn FM Avidin binding of carboxyl-substituted biotin and analogues Biochemistry 1982 21 978 984 10.1021/bi00534a024 7041971; settings: cited from earlier work
[3] = CHO K1 cells expressing PAC1 and cAMP-dependent luciferase, no streptavidin, mean ± SD of duplicates, read-out: EC50 for PAC1 receptor activation in the absence of SA

Compound: C[C@@H]1NC(=O)N[C@@H]1CCCCCC(=O)O [desthiobiotin]
affinity for SA relative to biotin (lower) [2]: 10,000 fold

Compound: O=C(O)CCCC[C@@H]1SC[C@@H]2NC(=O)N[C@@H]21 [biotin]
characteristic dissociation time of SA from biotin [2]: ~ 7 h

Continued, values first:

EC50 ([1]; DA conjugate, no IgG, SD of duplicates, read-out: EC50 for PAC1 receptor activation): 2.5 ± 0.6 nM
Compound: CC[C@H](C)[C@H](NC(=O)CNC(=O)[C@H](CC(=O)O)NC(=O)[C@H](CO)NC(=O)[C@@H](N)Cc1c[nH]cn1)C(=O)N[C@@H](Cc1ccccc1)C(=O)N[C@H](C(=O)N[C@@H](CC(=O)O)C(=O)N[C@@H](CO)C(=O)N[C@@H](CSC1CC(=O)N(CCC(=O)NCCc2ccc(O)c(O)c2)C1=O)C(=O)N[C@@H](CO)C(=O)N[C@@H](CCCNC(=N)N)C(=O)N[C@@H](Cc1ccc(O)cc1)C(=O)N[C@@H](CCCNC(=N)N)C(=O)N[C@@H](CCCCN)C(=O)N[C@@H](CCC(N)=O)C(=O)N[C@@H](CCSC)C(=O)N[C@@H](C)C(=O)N[C@H](C(=O)N[C@@H](CSC1CC(=O)N(CCC(=O)NCCc2ccc(O)c(O)c2)C1=O)C(=O)N[C@@H](CCCCN)C(=O)N[C@@H](Cc1ccc(O)cc1)C(=O)N[C@@H](CC(C)C)C(=O)N[C@@H](C)C(=O)N[C@@H](C)C(=O)N[C@H](C(=O)N[C@@H](CC(C)C)C(=O)NCC(=O)N[C@@H](CCCCN)C(=O)N[C@@H](CCCNC(=N)N)C(=O)N[C@@H](Cc1ccc(O)cc1)C(=O)N[C@@H](CCCCN)C(=O)N[C@@H](CCC(N)=O)C(=O)N[C@@H](CCCNC(=N)N)C(=O)N[C@H](C(=O)N[C@@H](CCCCN)C(=O)N[C@@H](CC(N)=O)C(=O)N[C@@H](CCCCN)C(N)=O)C(C)C)C(C)C)C(C)C)[C@@H](C)O (some centres unmarked) [PACAP-10,20-DA] (H-HSDGIFTDSC(X2)SRYRKQMAVC(X2)KYLAAVLGKRYKQRVKNK-NH2)

EC50 [1, 3]: 0.061 ± 0.007 nM
Compound: CC[C@H](C)[C@H](NC(=O)CNC(=O)[C@H](CC(=O)O)NC(=O)[C@H](CO)NC(=O)[C@@H](N)Cc1c[nH]cn1)C(=O)N[C@@H](Cc1ccccc1)C(=O)N[C@H](C(=O)N[C@@H](CC(=O)O)C(=O)N[C@@H](CO)C(=O)N[C@@H](CCCCNC(=O)CCCC[C@@H]1SC[C@@H]2NC(=O)N[C@@H]21)C(=O)N[C@@H](CO)C(=O)N[C@@H](CCCNC(=N)N)C(=O)N[C@@H](Cc1ccc(O)cc1)C(=O)N[C@@H](CCCNC(=N)N)C(=O)N[C@@H](CCCCN)C(=O)N[C@@H](CCC(N)=O)C(=O)N[C@@H](CCSC)C(=O)N[C@@H](C)C(=O)N[C@H](C(=O)N[C@@H](CCCCNC(=O)CCCC[C@@H]1SC[C@@H]2NC(=O)N[C@@H]21)C(=O)N[C@@H](CCCCN)C(=O)N[C@@H](Cc1ccc(O)cc1)C(=O)N[C@@H](CC(C)C)C(=O)N[C@@H](C)C(=O)N[C@@H](C)C(=O)N[C@H](C(=O)N[C@@H](CC(C)C)C(=O)NCC(=O)N[C@@H](CCCCN)C(=O)N[C@@H](CCCNC(=N)N)C(=O)N[C@@H](Cc1ccc(O)cc1)C(=O)N[C@@H](CCCCN)C(=O)N[C@@H](CCC(N)=O)C(=O)N[C@@H](CCCNC(=N)N)C(=O)N[C@H](C(=O)N[C@@H](CCCCN)C(=O)N[C@@H](CC(N)=O)C(=O)N[C@@H](CCCCN)C(N)=O)C(C)C)C(C)C)C(C)C)[C@@H](C)O [PACAP-10,20-BT] (H-HSDGIFTDSK(Biotin)SRYRKQMAVK(Biotin)KYLAAVLGKRYKQRVKNK-NH2)

EC50 [1, 3]: 0.13 ± 0.002 nM
Compound: CC[C@H](C)[C@H](NC(=O)CNC(=O)[C@H](CC(=O)O)NC(=O)[C@H](CO)NC(=O)[C@@H](N)Cc1c[nH]cn1)C(=O)N[C@@H](Cc1ccccc1)C(=O)N[C@H](C(=O)N[C@@H](CC(=O)O)C(=O)N[C@@H](CO)C(=O)N[C@@H](CCCCNC(=O)CCCCC[C@H]1NC(=O)N[C@H]1C)C(=O)N[C@@H](CO)C(=O)N[C@@H](CCCNC(=N)N)C(=O)N[C@@H](Cc1ccc(O)cc1)C(=O)N[C@@H](CCCNC(=N)N)C(=O)N[C@@H](CCCCN)C(=O)N[C@@H](CCC(N)=O)C(=O)N[C@@H](CCSC)C(=O)N[C@@H](C)C(=O)N[C@H](C(=O)N[C@@H](CCCCNC(=O)CCCCC[C@H]1NC(=O)N[C@H]1C)C(=O)N[C@@H](CCCCN)C(=O)N[C@@H](Cc1ccc(O)cc1)C(=O)N[C@@H](CC(C)C)C(=O)N[C@@H](C)C(=O)N[C@@H](C)C(=O)N[C@H](C(=O)N[C@@H](CC(C)C)C(=O)NCC(=O)N[C@@H](CCCCN)C(=O)N[C@@H](CCCNC(=N)N)C(=O)N[C@@H](Cc1ccc(O)cc1)C(=O)N[C@@H](CCCCNC(=O)CCCCC[C@H]1NC(=O)N[C@H]1C)C(=O)N[C@@H](CCC(N)=O)C(=O)N[C@@H](CCCNC(=N)N)C(=O)N[C@H](C(=O)N[C@@H](CCCCN)C(=O)N[C@@H](CC(N)=O)C(=O)N[C@@H](CCCCN)C(N)=O)C(C)C)C(C)C)C(C)C)[C@@H](C)O [PACAP-10,20,32-dBT] (H-HSDGIFTDSK(X1)SRYRKQMAVK(X1)KYLAAVLGKRYK(X1)QRVKNK-NH2)
